# Experimental data from article PMC6182421, “De novo coiled-coil peptides as scaffolds for disrupting protein–protein interactions” (Chemical Science, 2018).
# How the values were obtained:
# [1] = tested on: hDM2/Flu-p53; type: binding; details: read-out: IC50, inhibition of Flu-p53/hDM2 (positive control)
# [2] = Circular dichroism spectroscopy and thermal denaturation; type: physicochemical; details: for TM (midpoint of thermal denaturation): MRE222 monitored 5 to 90 °C at 40 °C h^–1, PBS pH 7.4, 50 μM of each peptide; for % helicity: from MRE222, 20 °C, calculation per ref 68
# Text: (A & B) CC-Di (pale green), CC-Di_S (lime), CC-Di_E1 (green), CC-Di_E2 (olive). (C & D) CC-Di-A (pink), CC-Di-B (cyan), CC-Di-A : CC-Di-B mixture (purple). (E & F) CC-Di-A_S (red), CC-Di-B (cyan), CC-Di-A_S : CC-Di-B mixture (brown). (G & H) CC-Di-A (pink), CC-Di-B_S (blue), CC-Di-A : CC-Di-B_S mixture (indigo). For heteromeric assemblies (i.e. Panels C–H) the theoretical spectra expected should the pairs of peptides not interact are depicted by grey dashes. Conditions: all experiments were performed in phosphate-buffered saline (PBS; pH 7.4) at 50 μM concentration of each peptide. Equilibrium CD spectra were recorded at 20 °C.
# CD spectra were collected using a JASCO J810 spectropolarimeter coupled to a Peltier temperature controller. Peptide-containing solutions were freshly prepared in PBS (pH 7.4) with concentrations calculated from UV absorption at 280 nm (ε(Tyr) = […]).[78] Samples were examined at 50 μM concentration for lone peptides and 50 + 50 μM for two peptide heterodimeric examples, in a 1 mm quartz cuvette. […] Thermal denaturation experiments were conducted by ramping temperature from 5 to 90 °C at 40 °C h^–1. Full spectra (260–190 nm, 5 scans) were recorded at 5 °C and 20 °C, while the CD signal at 222 nm was recorded across the full temperature range at 1 °C intervals (1 nm interval, 1 nm bandwidth, 16 s response time).
# [3] = target: T1, MCL-1/FITC-BID (Homo sapiens, UniProt Q07820); test: Fluorescence anisotropy competition assay, MCL-1/FITC-BID; type: binding; details: for Displacement of FITC-BID from MCL-1 (in words) / IC50 MCL-1/BID: 150 nM MCL-1, 25 nM FITC-BID; for IC50 MCL-1/BID: Table 2, 21 °C, Tris buffer pH 7.4 + 0.01% Triton-X-100, 20-21 h incubation, triplicate
# T1 construct: made in house
# T1 sequence (Q07820 173-327 limits assumed): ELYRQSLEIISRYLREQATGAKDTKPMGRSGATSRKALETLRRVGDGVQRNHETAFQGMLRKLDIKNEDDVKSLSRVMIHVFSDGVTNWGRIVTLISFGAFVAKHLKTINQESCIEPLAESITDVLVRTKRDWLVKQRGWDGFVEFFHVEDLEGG
# [4] = Sedimentation-equilibrium analytical ultracentrifugation; type: physicochemical; details: AUC, relative to monomer molecular mass, 20 °C, PBS, 50 μM of each peptide
# Method: Sedimentation equilibrium experiments were prepared in PBS (137 mM NaCl, 2.7 mM KCl, 8.2 mM Na2HPO4 and 1.8 mM KH2PO4) at 50 μM peptide concentration for homomeric assemblies and 50 μM peptide concentration of both peptides for heteromeric assemblies and to 120 μL. The reference channel was loaded with 130 μL of PBS solution. Equilibrium distributions were measured twice per speed, in 4 krpm increments, and with rotor speeds from 40 to 60 krpm. Data were fitted to single ideal species models using Ultrascan II (; http://www.ultrascan.uthscsa.edu). […] 95% confidence limits were obtained by Monte Carlo analysis of the fits. The partial specific volume for each of the peptides and the buffer density were calculated using Ultrascan II.
# Beckman Proteomelab XL -I analytical ultracentrifuge u sing an An -60 Ti rotor and 2-channel centrepiec es.
# Sedimentation equilibrium experiments were made up in PBS (137 mM NaCl, 2.7 mM KCl, 8.2 mM
# Na2HP O4 and 1.8 mM KH2PO4) at 50 µM peptide concentration for homomeric assemblies and 50 µM
# peptide concentration of both peptides for heteromeric assemblies and to 120 µL. The referenc e channel
# was loaded with 130 µL of PBS solution. Equilibrium distributions were measured twice per speed, in 4
# krpm increments, and with rotor speeds from 40 to 60 krpm. Data were fitted to single ideal species models […]
# were calculated using Ultrascan II.
# [5] = target: T2, BCL-xL/FITC-BID (Homo sapiens, UniProt Q07817, DEL27-82); test: Fluorescence anisotropy competition assay, BCL-xL/FITC-BID; type: binding; details: competition titration, 20-21 h incubation
# T2 construct: made in house
# T2 sequence (Q07817 with tags, fused parts or gaps DEL27-82 limits assumed, species assumed): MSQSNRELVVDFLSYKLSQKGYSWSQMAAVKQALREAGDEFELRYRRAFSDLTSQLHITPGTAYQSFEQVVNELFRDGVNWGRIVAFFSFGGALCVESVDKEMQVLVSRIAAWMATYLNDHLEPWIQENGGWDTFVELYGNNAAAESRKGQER
# [6] = PBS pH 7.4, 50 μM of each peptide
Compound,TM (midpoint of thermal denaturation) [2],"% helicity [2, 6]",Displacement of FITC-BID from MCL-1 (in words) [3],IC50 MCL-1/BID [3],further results
COc1ccc(C2=N[C@@H](c3ccc(Cl)cc3)[C@@H](c3ccc(Cl)cc3)N2C(=O)N2CCNC(=O)C2)c(OC(C)C)c1 [Nutlin-3a],–,–,–,–,IC50 [1]: 273 ± 41 nM
"Ac-G EIAALEQ EIAALEK ENAALEQ EIAALEQ GYG-NH [CC-Di-A, acidic peptide of the obligate heterodimer CC-Di-AB]",NA (<0) °C,19%,does not bind MCL-1,No response,"MRE222 ([2]; CD at 222 nm, 20 °C, PBS pH 7.4, 50 μM of each peptide): –6577 deg cm^2 dmol res^–1"
"Ac-G EIAALKQ EIAALKK ENAALKQ EIAALKQ GYG-NH [CC-Di, de novo designed homodimeric coiled-coil peptide, unmodified scaffold]",75 °C,90%,did not displace FITC-BID,No response,Oligomer state [4]: 1.96
"Ac-G KIAALKQ KIAALKK KNAALKQ KIAALKQ GYG-NH [CC-Di-B, basic peptide of the obligate heterodimer CC-Di-AB]",38 °C,71%,"neither of the free peptides, CC-Di-B or CC-Di-B_S, competed with FITC-BID",No response,–
"Ac-G KIAALKQ KILRLIG DNVALKQ KIAALKQ GYG-NH [CC-Di-B_S, basic peptide with the short motif graft that should partner peptide CC-Di-A]",27 °C,46%,"neither of the free peptides, CC-Di-B or CC-Di-B_S, competed with FITC-BID",No response,–
Ac-GEIAALKQEILRLIGDNVALKQEIAALKQGYG-NH2 [CC-Di_S],–,–,–,–,Inhibition of BCL-xL/FITC-BID (in words) [5]: inconclusive
Ac-GEILALKQEILRLIGDNVALKQEILNLKQGYG-NH2 [CC-Di_E1],–,–,–,–,IC50 [3]: 700 ± 50 nM
